ChEMBL document CHEMBL3885881, “DrugMatrix”

Organism: Rattus norvegicus
Test: DrugMatrix - Regimen: Daily Repeat
Format: toxicity, organism-based, Sprague-Dawley
Design: regimen Daily Repeat, gender Male, age 6-8 weeks
Details: in vivo, iv, vehicle 100 % SALINE; for ABSOLUTE BASOPHIL / ABSOLUTE EOSINOPHIL / ABSOLUTE LYMPHOCYTE / ABSOLUTE MONOCYTE / ABSOLUTE SEGMENTED NEUTROPHIL / BASOPHIL / EOSINOPHIL / ERYTHROCYTE COUNT / HEMATOCRIT / HEMOGLOBIN / LEUKOCYTE COUNT / LYMPHOCYTE / MEAN CORPUSCULAR HEMOGLOBIN / MEAN CORPUSCULAR HEMOGLOBIN CONCENTRATION / MEAN CORPUSCULAR VOLUME / MONOCYTE / NEUTROPHIL / NUCLEATED RED BLOOD CELLS / PLATELET COUNT: tissue Blood; for ALANINE AMINOTRANSFERASE / ALBUMIN / ALKALINE PHOSPHATASE / ASPARTATE AMINOTRANSFERASE / BLOOD UREA NITROGEN / CARBON DIOXIDE / CHLORIDE / CHOLESTEROL / CREATINE PHOSPHOKINASE / CREATININE / GLUCOSE / LACTATE DEHYDROGENASE / LIPASE / PHOSPHORUS / POTASSIUM / SODIUM / TOTAL BILIRUBIN / URIC ACID / TOTAL PROTEIN: tissue Plasma
[1] = 400 mg/kg, 72 h, dose level Low, time 3 day
[2] = 400 mg/kg, 120 h, dose level Low, time 5 day
[3] = 1200 mg/kg, 72 h, dose level M1, time 3 day
[4] = 1200 mg/kg, 120 h, dose level M1, time 5 day
[5] = 1800 mg/kg, 72 h, dose level High, time 3 day

NC(CO)(CO)CO [TROMETHAMINE]
ABSOLUTE BASOPHIL [1]: 0 CELLS/uL
ABSOLUTE EOSINOPHIL [1]: 233.33 CELLS/uL
ABSOLUTE LYMPHOCYTE [1]: 15317.33 CELLS/uL
ABSOLUTE MONOCYTE [1]: 347.33 CELLS/uL
ABSOLUTE SEGMENTED NEUTROPHIL [1]: 1468.67 CELLS/uL
BASOPHIL [1]: 0%
EOSINOPHIL [1]: 1.33%
ERYTHROCYTE COUNT [1]: 5.74 x10E6/uL
HEMATOCRIT [1]: 36.9%
HEMOGLOBIN [1]: 13.67 G/DL
LEUKOCYTE COUNT [1]: 17.37 x10E3/uL
LYMPHOCYTE [1]: 88.33%
MEAN CORPUSCULAR HEMOGLOBIN [1]: 23.87 pg
MEAN CORPUSCULAR HEMOGLOBIN CONCENTRATION [1]: 37.03 G/DL
MEAN CORPUSCULAR VOLUME [1]: 64.37 fL
MONOCYTE [1]: 2%
NEUTROPHIL [1]: 8.33%
NUCLEATED RED BLOOD CELLS [1]: 0 /100WBC
PLATELET COUNT [1]: 1402.67 x10E3/uL
ALANINE AMINOTRANSFERASE [1]: 55.67 u/L
ALBUMIN [1]: 4.27 G/DL
ALKALINE PHOSPHATASE [1]: 354.33 u/L
ASPARTATE AMINOTRANSFERASE [1]: 97 u/L
BLOOD UREA NITROGEN [1]: 17.67 mg/dL
CARBON DIOXIDE [1]: 20 mmol/L
CHLORIDE [1]: 107 MEQ/L
CHOLESTEROL [1]: 81.67 mg/dL
CREATINE PHOSPHOKINASE [1]: 249.33 u/L
CREATININE [1]: 0.23 mg/dL
GLUCOSE [1]: 184.67 mg/dL
LACTATE DEHYDROGENASE [1]: 286.33 u/L
LIPASE [1]: 9.33 u/L
PHOSPHORUS [1]: 14.23 mg/dL
POTASSIUM [1]: 7.13 MEQ/L
SODIUM [1]: 150.03 MEQ/L
TOTAL BILIRUBIN [1]: 0.23 mg/dL
URIC ACID [1]: 2.83 mg/dL
ABSOLUTE BASOPHIL [2]: 0 CELLS/uL
ABSOLUTE EOSINOPHIL [2]: 193.67 CELLS/uL
ABSOLUTE LYMPHOCYTE [2]: 13973.67 CELLS/uL
ABSOLUTE MONOCYTE [2]: 314 CELLS/uL
ABSOLUTE SEGMENTED NEUTROPHIL [2]: 1218.67 CELLS/uL
BASOPHIL [2]: 0%
EOSINOPHIL [2]: 1.33%
ERYTHROCYTE COUNT [2]: 5.88 x10E6/uL
HEMATOCRIT [2]: 36.53%
HEMOGLOBIN [2]: 13.73 G/DL
LEUKOCYTE COUNT [2]: 15.7 x10E3/uL
LYMPHOCYTE [2]: 89%
MEAN CORPUSCULAR HEMOGLOBIN [2]: 23.33 pg
MEAN CORPUSCULAR HEMOGLOBIN CONCENTRATION [2]: 37.6 G/DL
MEAN CORPUSCULAR VOLUME [2]: 62.13 fL
MONOCYTE [2]: 2%
NEUTROPHIL [2]: 7.67%
NUCLEATED RED BLOOD CELLS [2]: 0 /100WBC
PLATELET COUNT [2]: 1369.33 x10E3/uL
ALANINE AMINOTRANSFERASE [2]: 59 u/L
ALBUMIN [2]: 4.13 G/DL
ALKALINE PHOSPHATASE [2]: 352 u/L
ASPARTATE AMINOTRANSFERASE [2]: 100.33 u/L
BLOOD UREA NITROGEN [2]: 18 mg/dL
CARBON DIOXIDE [2]: 26.67 mmol/L
CHLORIDE [2]: 105 MEQ/L
CHOLESTEROL [2]: 63.33 mg/dL
CREATINE PHOSPHOKINASE [2]: 312.67 u/L
CREATININE [2]: 0.17 mg/dL
GLUCOSE [2]: 152 mg/dL
LACTATE DEHYDROGENASE [2]: 490 u/L
LIPASE [2]: 8 u/L
PHOSPHORUS [2]: 13.27 mg/dL
POTASSIUM [2]: 6.29 MEQ/L
SODIUM [2]: 147.27 MEQ/L
TOTAL BILIRUBIN [2]: 0.13 mg/dL
TOTAL PROTEIN [2]: 6.23 G/DL
URIC ACID [2]: 1.6 mg/dL
ABSOLUTE BASOPHIL [3]: 0 CELLS/uL
ABSOLUTE EOSINOPHIL [3]: 114.67 CELLS/uL
ABSOLUTE LYMPHOCYTE [3]: 5662 CELLS/uL
ABSOLUTE MONOCYTE [3]: 0 CELLS/uL
ABSOLUTE SEGMENTED NEUTROPHIL [3]: 823.33 CELLS/uL
BASOPHIL [3]: 0%
EOSINOPHIL [3]: 1.67%
ERYTHROCYTE COUNT [3]: 4.96 x10E6/uL
HEMATOCRIT [3]: 32.13%
HEMOGLOBIN [3]: 12.23 G/DL
LEUKOCYTE COUNT [3]: 6.6 x10E3/uL
LYMPHOCYTE [3]: 86%
MEAN CORPUSCULAR HEMOGLOBIN [3]: 24.7 pg
MEAN CORPUSCULAR HEMOGLOBIN CONCENTRATION [3]: 38.17 G/DL
MEAN CORPUSCULAR VOLUME [3]: 64.73 fL
MONOCYTE [3]: 0%
NEUTROPHIL [3]: 12.33%
NUCLEATED RED BLOOD CELLS [3]: 0 /100WBC
PLATELET COUNT [3]: 1106 x10E3/uL
ALANINE AMINOTRANSFERASE [3]: 48.67 u/L
ALBUMIN [3]: 4.2 G/DL
ALKALINE PHOSPHATASE [3]: 396.33 u/L
ASPARTATE AMINOTRANSFERASE [3]: 124 u/L
BLOOD UREA NITROGEN [3]: 14.67 mg/dL
CARBON DIOXIDE [3]: 28 mmol/L
CHLORIDE [3]: 101.67 MEQ/L
CHOLESTEROL [3]: 82 mg/dL
CREATINE PHOSPHOKINASE [3]: 177.33 u/L
CREATININE [3]: 0.16 mg/dL
GLUCOSE [3]: 166.33 mg/dL
LACTATE DEHYDROGENASE [3]: 103 u/L
LIPASE [3]: 8.33 u/L
PHOSPHORUS [3]: 11.1 mg/dL
POTASSIUM [3]: 5.72 MEQ/L
SODIUM [3]: 148.3 MEQ/L
TOTAL BILIRUBIN [3]: 0.1 mg/dL
TOTAL PROTEIN [3]: 6.23 G/DL
URIC ACID [3]: 0.7 mg/dL
ABSOLUTE BASOPHIL [4]: 0 CELLS/uL
ABSOLUTE EOSINOPHIL [4]: 321 CELLS/uL
ABSOLUTE LYMPHOCYTE [4]: 13922 CELLS/uL
ABSOLUTE MONOCYTE [4]: 0 CELLS/uL
ABSOLUTE SEGMENTED NEUTROPHIL [4]: 2357 CELLS/uL
BASOPHIL [4]: 0%
EOSINOPHIL [4]: 2%
ERYTHROCYTE COUNT [4]: 5.71 x10E6/uL
HEMATOCRIT [4]: 35.9%
HEMOGLOBIN [4]: 13.45 G/DL
LEUKOCYTE COUNT [4]: 16.6 x10E3/uL
LYMPHOCYTE [4]: 84%
MEAN CORPUSCULAR HEMOGLOBIN [4]: 23.6 pg
MEAN CORPUSCULAR HEMOGLOBIN CONCENTRATION [4]: 37.45 G/DL
MEAN CORPUSCULAR VOLUME [4]: 62.95 fL
MONOCYTE [4]: 0%
NEUTROPHIL [4]: 14%
NUCLEATED RED BLOOD CELLS [4]: 0 /100WBC
PLATELET COUNT [4]: 1326 x10E3/uL
ALANINE AMINOTRANSFERASE [4]: 51.5 u/L
ALBUMIN [4]: 4.3 G/DL
ALKALINE PHOSPHATASE [4]: 460.5 u/L
ASPARTATE AMINOTRANSFERASE [4]: 147 u/L
BLOOD UREA NITROGEN [4]: 19.5 mg/dL
CARBON DIOXIDE [4]: 26.5 mmol/L
CHLORIDE [4]: 105.5 MEQ/L
CHOLESTEROL [4]: 61.5 mg/dL
CREATINE PHOSPHOKINASE [4]: 173 u/L
CREATININE [4]: 0.2 mg/dL
GLUCOSE [4]: 161 mg/dL
LACTATE DEHYDROGENASE [4]: 131.5 u/L
LIPASE [4]: 7.5 u/L
PHOSPHORUS [4]: 12.6 mg/dL
POTASSIUM [4]: 5.85 MEQ/L
SODIUM [4]: 148.4 MEQ/L
TOTAL BILIRUBIN [4]: 0.15 mg/dL
TOTAL PROTEIN [4]: 6.15 G/DL
URIC ACID [4]: 1.35 mg/dL
ABSOLUTE BASOPHIL [5]: 0 CELLS/uL
ABSOLUTE EOSINOPHIL [5]: 0 CELLS/uL
ABSOLUTE LYMPHOCYTE [5]: 11188.5 CELLS/uL
ABSOLUTE MONOCYTE [5]: 305.5 CELLS/uL
ABSOLUTE SEGMENTED NEUTROPHIL [5]: 3356 CELLS/uL
BASOPHIL [5]: 0%
EOSINOPHIL [5]: 0%
ERYTHROCYTE COUNT [5]: 5.2 x10E6/uL
HEMATOCRIT [5]: 31.8%
HEMOGLOBIN [5]: 12.25 G/DL
LEUKOCYTE COUNT [5]: 14.85 x10E3/uL
LYMPHOCYTE [5]: 75%
MEAN CORPUSCULAR HEMOGLOBIN [5]: 23.65 pg
MEAN CORPUSCULAR HEMOGLOBIN CONCENTRATION [5]: 38.5 G/DL
MEAN CORPUSCULAR VOLUME [5]: 61.4 fL
MONOCYTE [5]: 2%
NEUTROPHIL [5]: 23%
NUCLEATED RED BLOOD CELLS [5]: 0 /100WBC
PLATELET COUNT [5]: 1215.5 x10E3/uL
ALANINE AMINOTRANSFERASE [5]: 64.5 u/L
ALBUMIN [5]: 4.05 G/DL
ALKALINE PHOSPHATASE [5]: 290 u/L
ASPARTATE AMINOTRANSFERASE [5]: 190 u/L
BLOOD UREA NITROGEN [5]: 19.5 mg/dL
CARBON DIOXIDE [5]: 24.5 mmol/L
CHLORIDE [5]: 105.5 MEQ/L
CHOLESTEROL [5]: 107 mg/dL
CREATINE PHOSPHOKINASE [5]: 336.5 u/L
CREATININE [5]: 0.22 mg/dL
GLUCOSE [5]: 149.5 mg/dL
LACTATE DEHYDROGENASE [5]: 446 u/L
LIPASE [5]: 8.5 u/L
PHOSPHORUS [5]: 13.45 mg/dL
POTASSIUM [5]: 6.05 MEQ/L
SODIUM [5]: 147.25 MEQ/L
TOTAL BILIRUBIN [5]: 0.2 mg/dL
TOTAL PROTEIN [5]: 6.15 G/DL
URIC ACID [5]: 0.95 mg/dL
